The text below walks through data of PMC3132048, “Treatment of experimental adjuvant arthritis with a novel folate receptor-targeted folic acid-aminopterin conjugate” (Arthritis Research & Therapy, 2011).

Marks after values point to notes of the source that are not given here.

Data set [1] deals with adjuvant-induced arthritis. As to the kind of experiment: Rat adjuvant-induced arthritis (AIA) model. Particulars: for Body weight change (%): day 24 relative to day 10. The class given is in vivo. As to the method:
The rats were then inoculated intradermally (at the base of tail) with 0.5 mg heat-killed M. butyricum (BD Diagnostic Systems) in 100 μl light mineral oil (Sigma-Aldrich, St Louis, MO, USA). […] For each study, two or three rats from the same colony were not induced for arthritis and were used as healthy controls.
Unless noted otherwise, all drug treatments started on day 10 after arthritis induction and lasted for two consecutive weeks with biweekly (BIW, Mondays and Thursdays) or once-weekly (QW, Mondays) dosing regimens.
EC0746 was given subcutaneously (s.c.) in a dosing range of 25 to 1,000 nmol/kg (QW or BIW); MTX was given s.c. or orally at 250 nmol/kg (BIW) or 1,650 nmol/kg (QW); and etanercept (10 mg/kg) was given s.c. once every 3 days for a 12-day span. The QW MTX dosing regimen was to mimic MTX administration in humans, and this particular dose of 1,650 nmol/kg per week (that is, 0.75 mg/kg per week) was reportedly active as an intraperitoneal agent in the AIA model. To distinguish the anti-inflammatory mechanisms of EC0746 and MTX in vivo, a therapeutically irrelevant folate-containing competitor (EC0923, molecular weight 672) was used in 500-fold molar excess to block the activities of EC0746 and MTX at 250 nmol/kg (BIW).
Formalin-fixed hind paws were examined by a board-certified veterinary radiologist who had no knowledge of the study groups. Specific criteria were used to establish a numerical grade of severity for each radiographic change: increased soft tissue volume (0 to 4), narrowing or widening of joint spaces (0 to 5), subchondral erosion (0 to 3), periosteal reaction (0 to 4), osteolysis (0 to 4), subluxation (0 to 3), and degenerative joint changes (0 to 3). Scores are limited to the tarsus, and the maximum possible score per foot was 26 [39]. The histopathological analysis was also performed in a blind fashion by an independent contract laboratory (Bolder BioPATH Inc., Boulder, CO, USA). The arthritic ankles were scored on a scale of 0 to 5 for inflammation, bone resorption, pannus formation, and cartilage damage, with a maximal histology score of 20 per foot.

In data set [2] the test system is rat TG-macs. Kind of data set: Viability of thioglycollate-elicited peritoneal macrophages. Format: cell-based. Particulars: 72-hour incubation; no effect at concentrations as high as stated.
Protocol: Female Lewis rats (175 to 200 g) were purchased from Harlan Sprague Dawley (Indianapolis, IN, USA) and were allowed to acclimate for 1 week. To obtain peritoneal macrophages, rats were dosed intraperitoneally with an aged thioglycollate (TG) medium (20 ml/kg) and euthanized 3 days later. The peritoneal cavity of the animals was lavaged with 60 ml ice-cold phosphate-buffered saline to collect peritoneal exudate. The TG-elicited macrophages in the peritoneal fluids were obtained after a red cell lysing step and a 2-hour adherence in folate-free RPMI 1640 medium (Mediatech, Manassas, VA, USA) containing 1% heat-activated fetal calf serum and antibiotics. The purity of the resulting macrophage population (herein referred to as rat TG-macs) was determined to be ~90% pure based on CD11b/c expression (data not shown). […] Unless otherwise specified, all cells were maintained in the folate-free RPMI 1640 medium containing 10% heat-activated fetal calf serum and antibiotics (FFRPMI) under a 5% CO2 atmosphere.
Unlike RAW264.7 cells, rat TG-macs display little proliferative activity ex vivo and therefore were used in our studies to represent inflammatory macrophages in a low proliferative state. […] LPS (5 μg/ml) and IFNγ (100 ng/ml) were then added to the treated cells 24 hours prior to the end of incubation to stimulate the release of cytokines/chemokines, which were then detected with a rat cytokine antibody array.
The conditions of data set [3]: oral exposure, mice; cited from earlier work.
The target of data set [4] is T1, FRα (FRα-expressing KB cells) (Homo sapiens, UniProt P15328).
T1 construct: both KB cells and CHO-FRβ cells were used as the sources of FR; endogenous in cells; host or cells: KB cells
Kind of data set: Relative affinity assay: displacement of [3H]FA from KB cells. The settings on record: 37°C, competitor of [3H]FA, inverse molar ratio to displace 50%. Format: binding. As to the method:
(§1) The relative affinities of EC0746, AMT, and MTX were determined according to a previously established method except that both KB cells and CHO-FRβ cells were used as the sources of FR [33]. KB cells are a human cancer cell line known for elevated expression of FRα. CHO-FRβ cells were obtained from Manohar Ratnam, Department of Biochemistry and Cancer Biology, The University of Toledo (Toledo, OH, USA). This cell line was originally generated by stable integration and amplification of a human FRβ cDNA expression construct in CHO-K1 cells.
Background: Loss of bound radioactivity is the signal in a displacement assay; it reports binding, not function.

On the set-up of data set [5]: method as in PMID 10726889. Particulars: rats, 0.1 mg/kg; cited from earlier work.
Data set [6] deals with T2, human FRβ (CHO-FRβ cells) (Homo sapiens, UniProt P14207).
T2 construct: host or cells: CHO-K1 cells
Kind of data set: Relative affinity assay: displacement of [3H]FA from CHO-FRβ cells. Format: binding. The settings on record: 37°C, competitor of [3H]FA, inverse molar ratio to displace 50%. As to the method: as §1

Setting [7] is: s.c., 1,650 nmol/kg once weekly.

T2 sequence (P14207 17-255): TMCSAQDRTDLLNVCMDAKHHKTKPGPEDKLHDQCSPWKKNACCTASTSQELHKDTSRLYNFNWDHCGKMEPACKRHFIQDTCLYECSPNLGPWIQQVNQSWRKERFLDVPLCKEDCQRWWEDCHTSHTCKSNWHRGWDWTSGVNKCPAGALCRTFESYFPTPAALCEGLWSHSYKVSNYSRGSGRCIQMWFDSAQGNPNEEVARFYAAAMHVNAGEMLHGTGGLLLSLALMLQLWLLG
T1 sequence (P15328 25-257): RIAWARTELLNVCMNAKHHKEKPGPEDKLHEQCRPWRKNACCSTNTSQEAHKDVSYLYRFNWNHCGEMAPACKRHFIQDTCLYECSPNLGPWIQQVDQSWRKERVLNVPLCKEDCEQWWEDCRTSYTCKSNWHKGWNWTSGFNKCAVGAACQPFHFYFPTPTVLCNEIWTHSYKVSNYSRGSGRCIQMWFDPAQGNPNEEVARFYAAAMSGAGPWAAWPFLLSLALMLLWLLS

For `CN(Cc1cnc2nc(N)nc(N)c2n1)c1ccc(C(=O)N[C@@H](CCC(=O)O)C(=O)O)cc1` [MTX, methotrexate, reference compound], the “Decrease in summed histology score” value in data set [1] (oral, 250 nmol/kg biweekly) is 73%. In addition, the “Reduction in dorsal to ventral paw thickness” value in data set [1] (oral, 250 nmol/kg biweekly) was found to be 63%. Also, the “Weight loss due to disease progression” value in data set [1] (oral, 1,650 nmol/kg (0.75 mg/kg) once weekly) is ~ 10%. The “Splenomegaly (percentage increase in spleen weight relative to healthy rats)” value is 42 ± 17% in data set [1] (p.o., 250 nmol/kg biweekly from day 10) and 24 ± 3% in data set [1] (s.c., 250 nmol/kg biweekly from day 10). Further, the “Inhibition in paw edema (%)” value is recorded as 70 ± 5% in data set [1] (p.o., 250 nmol/kg biweekly from day 10, paw weight day 24); 47 ± 10^f % in data set [1] (p.o., 1,650 nmol/kg once weekly, calculated based on arthritis scores on day 24); 78 ± 10% in data set [1] (s.c., 250 nmol/kg biweekly from day 10, paw weight day 24); 63 ± 13^f % in data set [1] (s.c., 1,650 nmol/kg once weekly, calculated based on arthritis scores on day 24). Further, the “Body weight change (%)” value in data set [1] (p.o., 250 nmol/kg biweekly) was -14 ± 2%; in data set [1] (p.o., 1,650 nmol/kg once weekly), -10 ± 2%; in data set [1] (s.c., 250 nmol/kg biweekly), -2 ± 4%; in data set [1] (setting [7]), -7 ± 8%. The “Anti-arthritic activity in presence of EC0923 competitor” value in data set [1] (s.c., 250 nmol/kg biweekly plus EC0923 125 μmol/kg, P > 0.05) is recorded as “not significantly blocked”. Also, the Weight loss in data set [1] (setting [7]) is on record as ~ 7%. Besides, the “Concentration affecting TG-macs viability” value in data set [2] was more than 10 µM. Besides, the “Acute 50% lethal dose” value in data set [3] is listed as 89 mg/kg. Further, the “Relative affinity value (FA = 1)” value in data set [4] is 0.018; in data set [6] it was 0.005. For the same molecule, in data set [5], the Oral bioavailability is reported as 21%.
